# Experimental data published in patent publication US20060194969A1, “4-Substituted benzimidazoles and their uses as inhibitors of gastric secretion” (priority 2002, published 2006).
# How the values were obtained:
# [1] = test system: pentagastrin-stimulated acid secretion of the perfused rat stomach; experiment: Secretion-inhibiting action on the perfused rat stomach (pentagastrin-stimulated acid secretion, intraduodenal administration in vivo); conditions: dose 1 μmol/kg i.d., anesthetized female CD rat; for inhibition in vivo at 1 µmol/kg: intraduodenal
# Text: Testing of the Secretion-Inhibiting Action on the Perfused Rat Stomach
# In Table A which follows, the influence of the compounds according to the invention on the pentagastrin-stimulated acid secretion of the perfused rat stomach after intraduodenal administration in vivo is shown.
# The abdomen of anesthetized rats (CD rat, female, 200-250 g; 1.5 g/kg i.m. urethane) was opened after tracheotomy by a median upper abdominal incision and a PVC catheter was fixed transorally in the esophagus and another via the pylorus such that the ends of the tubes just projected into the gastric lumen. The catheter leading form the pylorus led outward into the right abdominal wall through a side opening.
# After thorough rinsing (about 50-100 ml), warm (37° C.) physiological NaCl solution was continuously passed through the stomach (0.5 ml/min, pH 6.8-6.9; Braun-Unita I). The pH (pH meter 632, glass electrode EA 147; φ=5 mm, Metrohm) and, by titration with a freshly prepared 0.01 N NaOH solution to pH 7 (Dosimat 665 Metrohm), the secreted HCl were determined in the effluent in each case collected at an interval of 15 minutes.
# The gastric secretion was stimulated by continuous infusion of 1 μg/kg (=1.65 ml/h) of i.v. pentagastrin (left femoral vein) about 30 min after the end of the operation (i.e. after determination of 2 preliminary fractions). The substances to be tested were administered intraduodenally in a 2.5 ml/kg liquid volume 60 min after the start of the continuous pentagastrin infusion.
# The body temperature of the animals was kept at a constant 37.8-38° C. by infrared irradiation and heat pads (automatic, stepless control by means of a rectal temperature sensor).
melting point,Structure (SMILES),inhibition in vivo at 1 µmol/kg [1],Inhibition of acid secretion (%) [1]
144 to 145 °C,"Cc1nc2c(O[C@@H]3c4ccccc4C[C@H]3O)cc(C(=O)N(C)C)cc2n1C.O=C(O)C(=O)O (relative stereo) [Example 10, 4-(trans-2,3-Dihydro-2-hydroxy-1-indenyloxy)-6-(N,N-dimethylaminocarbonyl)-1,2-dimethyl-1H-benzimidazole Oxalate]",> 50%,
,COCC(=O)O[C@@H]1Cc2ccccc2[C@H]1Oc1cc(C(=O)N(C)C)cc2c1nc(C)n2C (relative stereo) [Example 13],,>50%
158 to 159 °C,"Cc1nc2c(O[C@@H]3c4ccc(Cl)cc4C[C@H]3O)cc(C(=O)N(C)C)cc2n1C.O=C(O)C(=O)O (relative stereo) [Example 19, 4-(trans-5-Chloro-2,3-dihydro-2-hydroxy-1-indenyloxy)-6-(N,N-dimethylaminocarbonyl)-1,2-dimethyl-1H-benzimidazole Oxalate]",> 50%,
161 to 162 °C,"CCc1cccc(C)c1COc1cc(C(=O)N(C)C)cc2c1nc(C)n2C [Example 8, 6-(N,N-Dimethylaminocarbonyl)-4-(2-ethyl-6-methyl-benzyloxy)-1,2-dimethyl-1H-benzimidazole]",> 50%,
126 to 127 °C,"Cc1nc2c(O[C@H]3c4ccccc4C[C@@H]3O)cc(C(=O)N(C)C)cc2n1C.O=C(O)C(=O)O [Example 11, 4-[(1S,2S)-2,3-Dihydro-2-hydroxy-1-indenyloxy]-6-(N,N-dimethylaminocarbonyl)-1,2-dimethyl-1H-benzimidazole Oxalate]",> 50%,
200 to 201 °C,"CCc1cccc(C)c1CNc1cc(C(=O)NCCO)cc2c1nc(C)n2C [Example 35, 4-(2-Ethyl-6-methyl-benzylamino)-6-(2-hydroxyethyl-aminocarbonyl)-1,2-dimethyl-1H-benzimidazole]",> 50%,
240 to 241 °C,"CCc1cccc(C)c1CNc1cc(C(N)=O)cc2c1nc(C)n2C [Example 38, 4-(2-Ethyl-6-methyl-benzylamino)-1,2-dimethyl-1H-benzimidazole-6-carboxamide]",> 50%,
126 °C,"CCc1cccc(C)c1CNc1cc(C(=O)N2CCCC2)cc2c1nc(C)n2C [Example 40, 4-(2-Ethyl-6-methyl-benzylamino)-1,2-dimethyl-6-(pyrrolidinocarbonyl)-1H-benzimidazole]",> 50%,
229 to 231 °C,"CCc1cccc(C)c1CNc1cc(C(=O)N2CCOCC2)cc2c1nc(C)n2C [Example 41, 4-(2-Ethyl-6-methyl-benzylamino)-1,2-dimethyl-6-(morpholinocarbonyl)-1H-benzimidazole]",> 50%,
154 °C,"CCc1cccc(C)c1CNc1cc(C(=O)N(C)C)cc2c1nc(COC)n2C [Example 42, 6-(N,N-Dimethylaminocarbonyl)-4-(2-ethyl-6-methyl-benzylamino)-2-methoxymethyl-1-methyl-1H-benzimidazole]",> 50%,
156 to 157 °C,"COCc1nc2c(NCc3c(C)cccc3C)cc(C(=O)N(C)C)cc2n1C [Example 43, 6-(N,N-Dimethylaminocarbonyl)-4-(2,6-dimethyl-benzylamino)-2-methoxymethyl-1-methyl-1H-benzimidazole]",> 50%,
,CCc1cccc(C)c1CNc1cc(C(=O)N(C)C)cc2c1nc(C)n2C [Example 44],,>50%
183 to 184 °C,"CCc1cccc(C)c1CNc1cc(C(=O)N(C)C)cc2c1ncn2C.Cl [Example 45, 6-(N,N-Dimethylaminocarbonyl)-4-(2-ethyl-6-methyl-benzylamino)-1-methyl-1H-benzimidazole Hydrochloride]",> 50%,
142 to 143 °C,"Cc1cccc(C)c1CNc1cc(C(=O)N(C)C)cc2c1nc(C)n2C [Example 46, 6-(N,N-Dimethylaminocarbonyl)-4-(2,6-dimethyl-benzylamino)-1,2-dimethyl-1H-benzimidazole]",> 50%,
228 to 230 °C,"CCc1cccc(C)c1CNc1cc(C(=O)N(C)C)cc2[nH]c(C)nc12 [Example 49, 6-(N,N-Dimethylaminocarbonyl)-4-(2-ethyl-6-methyl-benzylamino)-2-methyl-1H-benzimidazole]",> 50%,
252 to 253 °C,"CNC(=O)c1cc(NCc2c(C)cccc2C)c2nc(C)n(C)c2c1 [Example 55, 4-(2,6-Dimethyl-benzylamino)-1,2-dimethyl-6-(N-methylaminocarbonyl)-1H-benzimidazole]",> 50%,
120 °C,"CCOC(=O)c1cc(OCc2ccccc2)c2nc(C3CC3)n(C)c2c1 [Example 86, Ethyl 4-benzyloxy-2-cyclopropyl-1-methyl-1H-benzimidazole-6-carboxylate]",,
